Entries after “also recorded” stand apart in the source; their conditions may differ. Where two headings read alike, the source gives them in different places.
Assays:
fibrin [1] = conditions: for IC50: read-out: IC50, 50% inhibition of binding of biotinylated Fn to fibrin, 200 ng fibrin, 1 hour 22° C.
Method: Since the anti-Fn detection system described for the ELISA above could not be used in Fn competition assays employing the intact Fn molecule or the 25.8 kDa proteolytic fragment, purified Fn was biotinylated using water soluble NHS-LC-Biotin (Pierce Chemm. Co.; according to the manufacturer's instructions) and binding to fibrin detected by alkaline phosphatase conjugated streptavidin (diluted 1/500 in FBBT/BSA) for 1 hour at 22° C., followed by the addition of p-nitrophenyl phosphate, as described above. To ensure that the biotinylation of the Fn had not affected its ability to bind to fibrin, fibrin-binding activity was tested by incubating increasing concentrations of biotinylated Fn (10-300 ng/0.1 ml FBB) with the fibrin-coated wells (200 ng) and detected (see FIG. 28A) using alkaline phosphatase-conjugated streptavidin and the reaction developed as described for Direct Elisa.
To compare the relative fibrin-binding affinities of the ^4 F1.^5 F1 recombinant module pair and the 25.9 kDa proteolytic fragment (^1 F1-^5 F1) with that of the native Fn molecule, these purified proteins were competed with biotinylated plasma Fn for binding to fibrin coated wells and the extent of inhibition of binding assessed by incubation with alkaline phosphatase-conjugated streptavidin. […] Biotinylated Fn (100 ng/0.1 ml FBB: 2.3 nM) was combined with increasing concentrations (0-10 μM) of either unlabeled Fn, the 25.9 kDa proteolytic fragment, or the separate ^4 F1.^5 F1, and ^10 F1 recombinant modules and incubated with the fibrin-coated microtiter wells for 1 hour at 22° C. […] Bound biotinylated Fn was quantitated as described above.

fibrin [2] = assay: Direct binding ELISA on fibrin-coated microtiter plates; conditions: for binding to fibrin-coated wells: ELISA, room temperature, 1 hr
Method: The preparation of fibrin coated microtiter plates was adapted from a method described by Christman et al., Biochim. Biophys. Acta. […] Microtiter (Immulon) plates were coated with fibrinogen at a concentration of 50-1000 ng/well/0.1 ml of Tris buffered saline (TBS). The plates were dried for 24 hours at 37° C. and 0.1 ml of thrombin (20 NIH units/100 ml) containing TRASYLOL™ (aprotinin) (400 K.I units/100 ml) in TBS was added to each well and the plates incubated for 2 hours at 37° C. Each well is washed one time with PBS and the plates are blocked for 1.5 hours with 1% BSA in TBS to prevent non-specific binding. A constant concentration of fibronectin and the 11 kDa fibrin-binding polypeptide (500 ng/0.1 ml) in 50 mM Tris-HCl, 0.1M NaCl, pH 7.6 (FBB) were incubated separately with fibrin coated microtiter wells (50-1000 ng) for 1 hr at room temperature (23° C.).
The wells were washed three times with FBB containing 0.05% Tween 20 (FBBT) and incubated for 1 hour with 0.05 ml of the a polyclonal anti-fibronectinantiserum (Calbiochem) or the purified IgG fraction of anti-11 kDa rabbit antisera, respectively, at a concentration of 1 μg/ml in FBBT containing 0.1% BSA (FBBT/BSA). Following three washes with FBBT, the wells were incubated with 0.05 ml of alkaline phosphatase labeled goat anti-rabbit IgG (TAGO) at a concentration of 2 μg/ml in FBBT/BSA, for 1 hour. The reaction was developed with 0.05 ml of […] p-nitrophenyl phosphate (Sigma phosphatase substrate tablets) in 10% diethanolamine, pH 9.8 containing 1 mM MgCl2.
2. […] Binding of ^4 F1.^5 F1 to fibrin coated microtiter plates was examined by ELISA as described above. Microtiter wells were coated with fibrin (50-1000 ng) and blocked, as described earlier, and incubated with the module pair ^4 F1.^5 F1 (500 ng/0.1 ml or 1000 ng/0.1 ml in FBB) for 1 hour, at room temperature.
Fibrin-binding activity was also assessed by an ELISA. Fn was reacted with fibrin-coated microtiter plates and bound Fn was determined by incubation with a polyclonal rabbit anti-Fn antiserum followed by alkaline phosphatase-labeled anti-rabbit Ig.

fibrin [3] = assay: ELISA: competitive inhibition of fibronectin binding to fibrin by type 1 recombinant modules; conditions: for maximum inhibition of Fn binding to fibrin: saturating concentration
Method: Fibrin-binding activity was also assessed by an ELISA. Fn was reacted with fibrin-coated microtiter plates and bound Fn was determined by incubation with a polyclonal rabbit anti-Fn antiserum followed by alkaline phosphatase-labeled anti-rabbit Ig. […] Thus, on a mole-per-mole basis, assuming complete attachment of all the fibrinogen applied to the polystyrene plate, total proteolytic conversion to fibrin, and accessibility of the binding sites, 0.8 moles of Fn per mole of fibrin were required to achieve maximum binding (assuming a molecular weight of 340 kDa for the fibrin hexamer and 440 kDa for the Fn dimer).
The recombinant Fn modules were used to inhibit the binding of Fn to the fibrin-coated microtiter plates. […] At this saturating concentration, the binding of Fn to fibrin was inhibited by 70%.

fibrin [4] = assay: Fibrin-SEPHAROSE affinity chromatography (binding and elution); set-up: species or system bovine
Method: Bovine fibrinogen was cross-linked to CNBr-activated SEPHAROSE™ (5 mg/ml beads) according to the manufacturer's instructions. Coupled fibrinogen was subsequently converted to fibrin by incubation with human thrombin to a final concentration of 5 NIH units/ml and 100 K.I. (kallikrein inhibitory) units/ml of aprotinin (in 0.05M Tris-HCI buffer, pH 7.6, containing 0.1M NaCl and 0.01M EDTA) for three hours, at room temperature (Gold, et al. (1983) Biochemistry 22, 4113-4119).
1.0M NaCl in 0.05M tris buffer, pH 8.0.
The fibrin-binding activity of the proteolytically derived 25.9 kDa fragment of Fn was determined by its ability to bind to a fibrin affinity matrix. […] FBB was used to equilibrate and wash the column. Following warming of the column to 22° C., the column was washed with FBB until absorbance at 280 nm (A280) was less than 0.01, and bound protein eluted with 0.05M Tris-HCl, 0.5M NaCl, 6M urea buffer, pH 7.6.
The module (500 μg/1.0 ml) was incubated for 4 hours (while rotating) at 4° C. in the presence of 1.0 ml fibrin-SEPHAROSE™ (5 mg fibrin/ml SEPHAROSE™ beads) equilibrated in […] Tris-HCl, 0.1M NaCl buffer, pH 7.6.
The 11 KDa peptide (50 μg/0.206 ml) was radiolabeled using the IODO-BEAD method (Pierce Chemical). The peptide was added to one IODO-BEAD in the presence of 100 μCi ^125 I (17.4 Ci/mg, New England Nuclear) and incubated on ice for 10 minutes. The bead was removed and the free ^125 I removed by chromatography through a PD10 column containing SEPHADEX™ G-25 (Pharmacia). […] The radioiodinated 11 kDa fibrin-binding peptide (500 μg/1.5 ml) was combined with 1 ml of fibrin-SEPHAROSE™ (5 mg fibrin/ml beads) equilibrated with 50 mM Tris-HCl, 0.1M NaCl buffer, pH 7.6, and rotated for 4 hours, at 4° C. The mixture was poured onto a disposable column (0.6 cm×8.0) and the unbound protein washed through. The column was equilibrated to room temperature and washed with the equilibration buffer.

fibrin [5] = assay: Reversibility (displacement) of 125I-11 kDa FBP binding to fibrin; conditions: negative control
Method: Detachable microtiter wells previously coated with 15 ng of fibrin were incubated with 100 ng/0.1 ml FBB (90 nM) of ^125 I-11 kDa for 1 hour at 22° C. The unbound radiolabeled protein was removed by extensive washing with FBB containing 0.1% Tween 20. […] The iodinated 11 kDa that remained bound to the removable wells was determined by quantitating the radioactivity attached to the individual wells in a gamma counter. Results were expressed as percentage of control wells incubated with buffer alone.

fibrin [6] = assay: Binding of 35S-methionine labeled recombinant proteins (COS cell supernatants) to fibrin-SEPHAROSE, autoradiogram quantitation
Source text: Recombinant proteins from both the N-terminal and C-terminal fibrin binding sites of the Fn molecule were expressed by transfection into ^35 S-labeled (methionine) COS cells, as described by Schwarzbauer, J. Cell Biol., 113:1463-1473 and Sottile et al, J. Biol. Chem., 266:12840-12843, (1991) and their fibrin-binding activity determined by affinity chromatography experiment. The ^35 S-methionive labeled protein from the N-terminal site was a 10.5 kDa protein that comprised the ^4 F1.^5 F1 modules (^4 F1.^5 F1). The ^35 S-methionive labeled 25 kDa recombinant protein from the C-terminal fibrin binding site of Fn expressed by the COS cells commenced in the ^10 F1 and extended to the end of the molecule (^10 F1-end). For the affinity chromatography experiments each of the cell culture supernatants that contained the separately expressed proteins (1.5 ml) were combined with 0.4 ml of a fibrin-SEPHAROSE affinity matrix and incubated overnight at 4 C. with end over rotation. Upon removal of the supernatant by centrifugation, the matrices were washed extensively with FBB (10 times with a 0.5 ml wash volume each ); after each wash the matrices were centrifuged and the supernatants removed. […] Aliquots (50 ul) of each fraction was counted in a LS 6000 Scintilation Counter, the corresponding fractions pooled, and analyzed by SDS-PAGE followed by autoradiography. The autoradiograms were exposed for two weeks and scanned with a pdi Desktop Scanner. […] As a control, to indicate the relative level of expression of the recombinant proteins and to confirm their position in the autoradiograms, an aliquot of each COS cell culture supernatant was immunoprecipited with an anti-fibronectin antibody and compared with the ^35 S-labeled proteins retained by the fibrin affinity chromatography matrices by SDS-PAGE and autoradiography. […] The Protein A-Sepharose beads were separated by centrifugation, washed two times with Tris-buffered saline, resuspended in Laemmli sample buffer and applied to SDS-PAGE.
FIG. 30 illustrates the binding of ^35 S-methionine labeled recombinant modules from both the N- (^4 F1.^5 F1) and C-terminal (^10 F1-end) fibrin binding sites of Fn to fibrin-SEPHAROSE affinity matrices. […] The results of the autoradiograms are represented by the graphs which indicate the image analysis of the bound recombinant proteins.

[7] = 35S-methionine labeled, optical density of autoradiogram

## fibronectin: purified intact human plasma fibronectin, 440 kDa dimer [reference compound]
Fibrin [1]; biotinylated Fn 2.3 nM
  concentration required for complete inhibition of biotinylated Fn binding: 2.2 µM
  molar excess required for complete inhibition: 1000
  IC50: 20 nM
Fibrin [2]
  amount giving maximum binding per 550 ng of fibrin: approximately 500 ng
  binding to fibrin-coated wells: bound to the fibrin-coated wells in a concentration dependent manner
Fibrin [2]; 200 ng Fn to 200 ng of fibrin (5.88 nM)
  concentration at saturation of binding to fibrin: ~4.54 nM
Fibrin [2]; assuming 340 kDa fibrin hexamer, 440 kDa Fn dimer
  moles per mole of fibrin required to achieve maximum binding: 0.8

## ^7 F1: recombinant seventh type 1 module from human fibronectin, residues 434-484 of SEQ ID NO:1 [reference compound]
Fibrin [3]; up to 5,000-50,000 molar excess compared to Fn
  inhibition of the binding of Fn to fibrin (non-binding modules): < 20%
Fibrin [4]
  binding to fibrin-Sepharose: did not bind

## ^10 F1: recombinant 46 amino acid tenth type 1 module from human fibronectin, residues 2141-2186 of SEQ ID NO:1 [reference compound]
Fibrin [1]
  fibrin binding as single module: did not, as a single module, exhibit fibrin-binding
Fibrin [1]; 0-10 μM competitor, biotinylated Fn 2.3 nM
  inhibition of biotinylated Fn binding (non-fibrin-binding modules): 10%
Fibrin [4]
  binding to fibrin-Sepharose: did not bind

## t-PA type 1 module: single type 1 module from tissue plasminogen activator (CRDEKTQMIYQQHQSWLRPVLRSNRVEYCWCNSGRAQCH) [reference compound]
Fibrin [3]
  maximum inhibition of Fn binding to fibrin: 55%

## egg lysozyme: unrelated protein employed as negative control
Fibrin [5]
  displacement of bound 125I-11 kDa FBP: unable to disrupt; also recorded: unable to displace

## ^4 F1.^5 F1: recombinant 93 amino acid module pair, fourth and fifth type 1 modules of human fibronectin, residues 152-244 of SEQ ID NO:1
Fibrin [1]
  amount relative to antibody (w/w) used to obtain maximal inhibition: 16 times
  blocked binding of fibronectin to fibrin (summary, FIG. 29): 36%
Fibrin [1]; 10 μM of protein (5,000 molar excess)
  maximal inhibition of biotinylated Fn binding to fibrin: 67%
Fibrin [1]; 0.1-25 μg inhibitor, biotinylated Fn 100 ng, fibrin 200 ng
  maximum inhibition of Fn binding to fibrin (FIG. 29): 67%
Fibrin [1]; biotinylated Fn 2.3 nM
  IC50: 700 nM
Fibrin [3]; Fn 2.3 nM
  concentration at which maximum inhibition was achieved: 10 µM
  molar excess at maximum inhibition: 5,000
  molar excess over Fn at 50% inhibition: 325
Fibrin [3]; Fn 100 ng (2.3 nM), fibrin 200 ng, read-out: concentration decreasing Fn binding to fibrin to 50%
  IC50: 750 nM
Fibrin [3]
  maximum inhibition of Fn binding to fibrin: 70%
Fibrin [6]
  relative affinity for fibrin: lower affinity
Fibrin [6]; [7]
  % of bound protein released by warming to 22° C.: 88%
Fibrin [4]
  elution of protein remaining bound after warming to 22° C. with 1.0M urea and finally 2.0M urea: eluted all the remaining bound
Fibrin [4]; 18% of total protein applied remained bound
  elution of protein remaining bound after warming to 22° C. with 1.0M NaCl: could not be eluted
Fibrin [4]; FBB buffer
  % of protein applied eluted on warming the column to 22° C. (room temperature): 9%
Fibrin [4]; after warming to 22° C.
  % of protein applied eluted with 0.5M NaCl, 6.0M urea buffer: 18%
Fibrin [4]; binding at 4° C., 500 μg applied
  % of protein applied retained by fibrin-SEPHAROSE: 27%
Fibrin [4]; increasing amounts applied to a fixed volume of fibrin-Sepharose
  % of protein applied retained by fibrin-Sepharose with increasing amounts applied: 25%
Fibrin [2]
  binding to fibrin-coated wells: bound to fibrin

## ^10 F1-end: 25 kDa recombinant protein from COS cells commencing in the tenth type 1 module and extending to the end of fibronectin
Fibrin [6]
  relative affinity for fibrin: higher relative affinity
Fibrin [6]; [7]
  % of bound protein released by warming to 22° C.: 35%
  % of bound protein requiring 6M urea in 0.5M NaCl for elution: 65%
